The structures appear in SMILES notation. Read-outs that look alike come from different tables or passages of the source.

In assay [1] the target is T1, [^3 H]-Spiroperidol Binding (Homo sapiens, UniProt P14416).
T1 construct: receptor assay described by D. Grigoriadis and P. Seeman, Journal of Neurochemistry, Volume 44, pages 1925-1935 (1985); from tissue
The experiment in a line: Inhibition of [^3 H]-spiroperidol binding in a receptor assay. The text has this: (§1) The above test methods are incorporated herein by reference.

The test system of assay [2] is Locomotor Activity in Mice. The experiment in a line: Inhibition of locomotor activity in mice. In kind it is in vivo. The conditions noted are these: for ED50: Mus musculus, ip; for Inhibition of Locomotor Activity in Mice ED50: IP.
Source text: as §1

The test system of assay [3] is Brain Striatal Dopamine Synthesis. The experiment in a line: Effects on brain striatal dopamine synthesis in rats. The settings on record: for inhibition in vivo at 10 mg/kg: Rattus norvegicus; for Effects on Brain Striatal Dopamine Synthesis in Rats, % inhibition: 10 mg/kg. In kind it is in vivo.
Source text: as §1

The target of assay [4] is sigma opiate binding site. The experiment in a line: Inhibition of [^3 H] DTG (ditoluoyl guanidine; a sigma ligand) binding. The method, then:
The compounds of Formula I are valuable dopaminergic agents. […] Thus, the compounds of Formula I were tested for their ability to inhibit locomotor activity in mice according to the assay described by J. R. McLean, et al, Pharmacology, Biochemistry and Behavior, Volume 8, pages 97-99 (1978); for their ability to inhibit [[…] ]-spiroperidol binding in a receptor assay described by D. Grigoriadis and P. Seeman, Journal of Neurochemistry, Volume 44, pages 1925-1935 (1985); and for their ability to inhibit dopamine synthesis in rats according to the protocol described by J. R. Walters and R. H. Roth, Naunyn-Schmiedeberg's Archives of Pharmacology, Volume 296, pages 5-14 (1976). The above test methods are incorporated herein by reference. The data in the table show the dopaminergic activity of representative compounds of Formula I. Additionally, the compounds of Formula I are ligands for the sigma opiate binding site. The data in the table show the inhibition of [^3 H] DTG (ditoluoyl guanidine; a sigma ligand) binding by representative compounds of Formula I, according to the method of E. Weber, et al, Proceedings of the National Academy of Sciences, USA, Volume 83, pages 8784-8788 (1986).

[5] abbreviates: read-out: Inhibition of [^3 H]-Spiroperidol Binding IC50.
Where [6] appears, read: Inhibition of [^3 H]-Spiroperidol Binding IC50.

T1 sequence (P14416 whole entry): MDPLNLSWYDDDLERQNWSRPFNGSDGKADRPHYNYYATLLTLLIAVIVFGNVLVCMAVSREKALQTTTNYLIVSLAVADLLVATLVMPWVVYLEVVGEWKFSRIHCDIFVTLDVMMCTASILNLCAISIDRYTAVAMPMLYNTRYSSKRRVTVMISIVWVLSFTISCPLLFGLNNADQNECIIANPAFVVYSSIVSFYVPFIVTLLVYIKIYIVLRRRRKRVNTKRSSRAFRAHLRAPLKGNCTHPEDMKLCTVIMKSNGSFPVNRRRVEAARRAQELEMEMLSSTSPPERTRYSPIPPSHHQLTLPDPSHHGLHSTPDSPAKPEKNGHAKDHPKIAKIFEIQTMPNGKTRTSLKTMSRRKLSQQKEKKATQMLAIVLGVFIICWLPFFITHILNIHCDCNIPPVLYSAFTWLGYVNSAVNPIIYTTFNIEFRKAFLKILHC

As to `OC1(c2cccs2)CCC(CCN2CCN(c3ccccn3)CC2)CC1` (stereo not drawn) [Example 3, cis-4-[2-[4-(2-Pyridinyl)-1-piperazinyl]ethyl]-1-(2-thienyl)cyclohexanol], the IC50 in assay [1] (setting [5]) turned out to be 262 nM; in assay [4], 6 nM. This compound registered an ED50 in assay [2] of 1.3 mg/kg. Moreover, the inhibition in vivo at 10 mg/kg in assay [3] (ip) amounted to 67%.
With `OC1(c2cccs2)CCC(CCN2CCN(c3ccccn3)CC2)CC1` (stereo not drawn) [Example 4, trans-4-[2-[4-(2-Pyridinyl)-1-piperazinyl]ethyl]-1-(2-thienyl)cyclohexanol], the IC50 in assay [1] (setting [5]) amounted to 341 nM; in assay [4] it was 5 nM. Moreover, in assay [2], the “Inhibition of Locomotor Activity in Mice ED50” value (“Inhibition … in Mice ED50” for short) is on record as 1.1 mg/kg. Moreover, the “Effects on Brain Striatal Dopamine Synthesis in Rats, % inhibition” value (from here on “Effects … % inhibition”) in assay [3] (IP) was determined as 47%.
On to `OC1(c2ccccc2)CCC(CCN2CCN(c3ccccn3)CC2)CC1` (centres unmarked) [Example 5, 1-Phenyl-4-[2-[4-(2-pyridinyl)-1-piperazinyl]ethyl]cyclohexanol], for which the 50% inhibitory concentration (IC50) in assay [1] (setting [5]) came out at 537 nM. Besides, the ED50 in assay [2] is 1.8 mg/kg. Besides, in assay [3] (ip), the inhibition in vivo at 10 mg/kg came out at 35%.
In turn, `OC1(c2ccc(F)cc2)CCC(CCN2CCN(c3ccccn3)CC2)CC1` (centres unmarked) [Example 7, 1-(4-Fluorophenyl)-4-[2-[4-(2-pyridinyl)-1-piperazinyl]ethyl]cyclohexanol] registered an inhibition at 10 µM in assay [1] (at 10^-5 M) of 94%. The same compound showed an ED50 in assay [2] of 0.64 mg/kg. Further, testing at 10 mg/kg in assay [3] (ip) gave an inhibition in vivo of 48%. In addition, the IC50 in assay [4] worked out at 16.5 nM.
In the case of `COc1ccc(C2(O)CCC(CCN3CCN(c4ccccn4)CC3)CC2)cc1` (stereo not drawn) [Example 8, cis-1-(4-Methoxyphenyl)-4-[2-[4-(2-pyridinyl)-1-piperazinyl]ethyl]cyclohexanol], the IC50 in assay [1] (setting [5]) turned out to be 169 nM. In assay [2], the “Inhibition … in Mice ED50” value is 0.9 mg/kg. Further, the “Effects … % inhibition” value in assay [3] (IP) is given as 88%.
Consider `OC1(c2ccccn2)CCC(CCN2CC=C(c3ccccc3)CC2)CC1` (stereo not drawn) [Example 11, cis-1-(2-Pyridinyl)-4-[2-[3,6-dihydro-4-phenyl-1(2H)-pyridinyl]ethyl]cyclohexanol], for which the IC50 in assay [1] (setting [5]) was found to be 156 nM; in assay [4], 3.5 nM. The same compound displayed an ED50 in assay [2] of 0.64 mg/kg.
In the case of `OC1(c2cccnc2)CCC(CCN2CC=C(c3ccccc3)CC2)CC1` (stereo not drawn) [Example 12, cis-1-(3-Pyridinyl)-4-[2-[3,6-dihydro-4-phenyl-1(2H)-pyridinyl]ethyl]cyclohexanol], the IC50 in assay [1] (setting [5]) was determined as 116 nM. Moreover, in assay [2], it took a dose of 0.25 mg/kg to reach the 50% effect level (ED50). The compound also showed an inhibition in vivo at 10 mg/kg in assay [3] (IP) of 79%.
On to `OC1(c2ccsc2)CCC(CCN2CCN(c3ccccn3)CC2)CC1` (centres unmarked) [Example 14, 4-[2-[4-(2-Pyridinyl)-1-piperazinyl]ethyl]-1-(3-thienyl)cyclohexanol], for which the figures for the IC50 in assay [1] (setting [5]) and in assay [4] were 312 nM and 4.5 nM, respectively. This compound showed an ED50 in assay [2] of 0.48 mg/kg. The compound also returned an inhibition in vivo at 10 mg/kg in assay [3] (ip) of 37%.
Regarding `COc1ccc(C2(O)CCC(CCN3CCN(c4ccccn4)CC3)CC2)cc1` (stereo not drawn) [Example 15, trans-1-(4-Methoxyphenyl)-4-[2-[4-(2-pyridinyl)-1-piperazinyl]ethyl]cyclohexanol], the 50% inhibitory concentration (IC50) in assay [1] (setting [5]) worked out at 932 nM. Further, the “Inhibition … in Mice ED50” value in assay [2] came to 0.3 mg/kg. Besides, the “Effects … % inhibition” value in assay [3] (IP) was 52%.
For `O=C(N[C@H]1CC[C@H](N2CCN(c3ccccn3)CC2)CC1)c1ccccc1` [Example 40, trans N-[4-[4-(2-Pyridinyl)-1-piperazinyl]cyclohexyl]benzamide], in assay [1] (setting [5]), the IC50 came out at 2800 nM. Also, in assay [2], the median effective dose (ED50) was determined as 0.36 mg/kg. The inhibition in vivo at 10 mg/kg in assay [3] (ip) was 65%.
For the compound `CN(C(=O)c1ccccc1)[C@H]1CC[C@H](N2CCN(c3ccccn3)CC2)CC1` [Example 42, trans N-Methyl-N-[4-[4-(2-pyridinyl)-1-piperazinyl]cyclohexyl]benzamide], in assay [1] (setting [5]), the 50% inhibitory concentration (IC50) was 4840 nM. In assay [2], this compound yielded an ED50 of 2.4 mg/kg. The compound further yielded an inhibition in vivo at 10 mg/kg in assay [3] (ip) of 15%.
Consider `O=C(N[C@H]1CC[C@H](N2CC=C(c3ccccc3)CC2)CC1)c1ccccc1` [Example 46, trans N-[4-(3,6-Dihydro-4-phenyl-1(2H)-pyridinyl)cyclohexyl]benzamide], for which the IC50 in assay [1] (setting [5]) turned out to be 360 nM. Further, the ED50 in assay [2] is 0.16 mg/kg. For the same compound, the inhibition in vivo at 10 mg/kg in assay [3] (IP) is 95%.
Turning to `O=C(N[C@H]1CC[C@H](N2CC=C(c3ccccc3)CC2)CC1)c1cccs1` [Example 47, trans N-[4-(3,6-Dihydro-4-phenyl-1(2H)-pyridinyl)cyclohexyl]-2-thiophenecarboxamide], the IC50 in assay [1] (setting [5]) was found to be 300 nM. In assay [2], this compound showed an ED50 of 0.23 mg/kg. In assay [3] (IP), this compound yielded an inhibition in vivo at 10 mg/kg of 74%.
In turn, `O=C(N[C@H]1CC[C@H](N2CC=C(c3ccccc3)CC2)CC1)c1ccsc1` [Example 48, trans N-[4-(3,6-Dihydro-4-phenyl-1(2H)-pyridinyl)cyclohexyl]-3-thiophenecarboxamide] returned a half-maximal inhibitory concentration (IC50) in assay [1] (setting [6]) of 90 nM. In assay [2], this compound showed an ED50 of 0.27 mg/kg. For the same compound, at 10 mg/kg the inhibition in vivo in assay [3] (IP) was 88%.
Consider `O=C(N[C@H]1CC[C@H](N2CC=C(c3ccccc3)CC2)CC1)c1cccnc1` [Example 49, trans N-[4-(3,6-Dihydro-4-phenyl-1(2H)-pyridinyl)cyclohexyl]-3-pyridinecarboxamide], for which the IC50 in assay [1] (setting [5]) is 600 nM. In addition, the ED50 in assay [2] is 2.4 mg/kg. For the same compound, at 10 mg/kg the inhibition in vivo in assay [3] (IP) was 72%.
For the compound `O=C(N[C@H]1CC[C@H](CCN2CCN(c3ccccn3)CC2)CC1)c1ccccc1` [Example 52, trans N-[4-[2-[4-(2-Pyridinyl)-1-piperazinyl]ethyl]cyclohexyl]benzamide], the IC50 in assay [1] (setting [5]) worked out at 440 nM. In assay [2], this compound had an ED50 of 0.16 mg/kg. In assay [3] (ip), this compound came in with an inhibition in vivo at 10 mg/kg of 87%.
Take `O=C(N[C@H]1CC[C@@H](CCN2CCN(c3ccccn3)CC2)CC1)c1ccccc1` [Example 53, cis N-[4-[2-[4-(2-Pyridinyl)-1-piperazinyl]ethyl]cyclohexyl]benzamide]: the IC50 in assay [1] (setting [5]) was found to be 3280 nM. Also, the ED50 in assay [2] stood at 4.5 mg/kg. For the same compound, the inhibition in vivo at 10 mg/kg in assay [3] (ip) was found to be 36%.
The like results for `Cc1ccc(C(=O)N[C@H]2CC[C@H](CCN3CCN(c4ccccn4)CC3)CC2)cc1` [Example 54, trans 4-Methyl-N-[4-[2-[4-(2-pyridinyl)-1-piperazinyl]ethyl]cyclohexyl]benzamide] were, in that order, 290 nM, 0.11 mg/kg and 0%.
For `O=C(N[C@H]1CC[C@@H](CCN2CCN(c3ccccn3)CC2)CC1)c1ccc(Cl)cc1` [Example 56, cis 4-Chloro-N-[4-[2-[4-(2-pyridinyl)-1-piperazinyl]ethyl]cyclohexyl]benzamide], the 50% inhibitory concentration (IC50) in assay [1] (setting [5]) came out at 1620 nM. It took a dose of 6.3 mg/kg to reach the 50% effect level in assay [2] (ED50).
For the compound `O=C(N[C@H]1CC[C@H](CCN2CCN(c3ccccn3)CC2)CC1)c1ccc(Cl)cc1` [Example 57, trans 4-Chloro-N-[4-[2-[4-(2-pyridinyl)-1-piperazinyl]ethyl]cyclohexyl]benzamide], the IC50 in assay [1] (setting [5]) stood at 620 nM. Moreover, in assay [2], the ED50 was 0.51 mg/kg.
For the compound `CC(=O)N[C@H]1CC[C@H](CCN2CCN(c3ccccn3)CC2)CC1` [Example 58, trans N-[4-[2-[4-(2-Pyridinyl)-1-piperazinyl]ethyl]cyclohexyl]acetamide], in assay [2], the 50% effective dose (ED50) is 0.03 mg/kg. In assay [3] (ip), the inhibition in vivo at 10 mg/kg was determined as 87%.
The like results for `O=C(N[C@H]1CC[C@H](CCN2CCN(c3ccccn3)CC2)CC1)c1ccc(Cl)c(Cl)c1` [Example 59, trans 3,4-Dichloro-N-[4-[2-[4-(2-pyridinyl)-1-piperazinyl]ethyl]cyclohexyl]benzamide] were, in that order, 14.4 mg/kg and 7%.
In assay [2], `O=C(N[C@H]1CC[C@H](CN2CCN(c3ccccn3)CC2)CC1)c1ccccc1` [Example 60, trans N-[4-[[4-(2-Pyridinyl)-1-piperazinyl]methyl]cyclohexyl]benzamide] gave an ED50 of 1 mg/kg. In assay [3] (ip), at 10 mg/kg the inhibition in vivo was 36%.
`O=C(N[C@H]1CC[C@H](CCN2CC=C(c3ccccc3)CC2)CC1)c1cccs1` [Example 71, trans N-[4-[2-(3,6-Dihydro-4-phenyl-1(2H)-pyridinyl)ethyl]cyclohexyl]-2-thiophenecarboxamide]: in assay [1] (setting [5]), the IC50 is 210 nM. It took a dose of 0.21 mg/kg to reach the 50% effect level in assay [2] (ED50). This compound returned an inhibition in vivo at 10 mg/kg in assay [3] (IP) of 79%.
Turning to `O=C(N[C@H]1CC[C@H](CCN2CC=C(c3ccccc3)CC2)CC1)c1ccccc1` [Example 72, trans N-[4-[2-(3,6-Dihydro-4-phenyl-1(2H)-pyridinyl)ethyl]cyclohexyl]benzamide], the IC50 in assay [1] (setting [6]) stood at 100 nM. Besides, in assay [2], the ED50 amounted to 0.27 mg/kg. In assay [3] (IP), the inhibition in vivo at 10 mg/kg came out at 74%.

Broadly, the IC50 is the point on the concentration scale where inhibition reaches its midpoint. A word on the ED50: it is the dose at which the effect has come halfway, by size or by number of responders. Read a low ED50 as greater potency. Broadly, the inhibition in vivo is the drop in the measured response relative to a control, in per cent. What is called inhibition is the drop in the measured response relative to a control, in per cent. A low value points to little suppression.

Values taken from US5047406A, “Substituted cyclohexanols as central nervous system agents” (Warner-Lambert Co., priority 1990, dated 1991).
